# Assay results: PubChem BioAssay AID624027 (Broad Institute, 2012)
# The source made the active and inactive calls.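 The calls were made as follows: active = decreasing luminescence curve with half-maximal concentration at most twice the top tested dose, in every replicate run; inconclusive = replicate test runs disagree in their calls; inactive = every replicate run inactive, including responses in the opposite direction.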
# Target: Glycogen synthase kinase-3 beta (Homo sapiens) (UniProt P49841)
# Sequence (P49841 whole entry, looked up): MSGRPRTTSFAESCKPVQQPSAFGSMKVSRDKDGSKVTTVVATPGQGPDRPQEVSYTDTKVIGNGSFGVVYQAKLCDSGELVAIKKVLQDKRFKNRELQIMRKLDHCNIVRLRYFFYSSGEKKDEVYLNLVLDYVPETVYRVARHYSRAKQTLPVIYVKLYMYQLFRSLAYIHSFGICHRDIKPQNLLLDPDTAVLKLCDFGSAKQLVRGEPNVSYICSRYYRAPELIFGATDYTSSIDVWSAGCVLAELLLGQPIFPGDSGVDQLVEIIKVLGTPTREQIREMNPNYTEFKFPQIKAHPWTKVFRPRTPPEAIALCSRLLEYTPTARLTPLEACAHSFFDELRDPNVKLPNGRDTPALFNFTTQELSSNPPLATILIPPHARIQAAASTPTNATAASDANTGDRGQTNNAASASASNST
# Assay: GSK3beta inhibitors at high ATP, SAR follow-up, mechanism study for GSK3beta inhibitor project, biochemical, varied ATP levels, ADP-Glo luminescence, dry powder samples (AID 624027)
# Conditions: GST-GSK3beta kinase, 100 uM ATP; for activity change, negative = inhibition: at 46 µM (top of the series)
Compound,AC50 [nM],"activity change, negative = inhibition"
Cc1[nH]nc2c1C(c1cccc3nonc13)C1=C(CC(C)(C)CC1=O)N2 (centres undefined),231,
CC1(C)CC(=O)C2=C(C1)Nc1n[nH]c(C(F)(F)F)c1C2c1cc(F)ccc1OC(F)(F)F (centres undefined),2340,
CC1(C)CC(=O)C2=C(C1)Nc1n[nH]c(C(F)(F)F)c1C2c1ccccc1 (centres undefined),103,
CN(C)Cc1cn(-c2ccccc2)nc1-c1ccccc1,,inactive
Cc1[nH]nc2c1C(c1ccc(C#N)cc1)C1=C(CC(C)(C)CC1=O)N2 (centres undefined),39800,
CC1(C)CC(=O)C2=C(C1)Nc1n[nH]c(C(F)(F)F)c1C2c1ccccc1F (centres undefined),932,
Cc1[nH]nc2c1[C@@H](c1ccccc1C(F)(F)F)C1=C(CC(C)(C)CC1=O)N2,231,
Cc1[nH]nc2c1[C@H](c1ccccc1C(F)(F)F)C1=C(CC(C)(C)CC1=O)N2,31900,
CC1(C)CC(=O)/C(=C\c2ccccc2C(F)(F)F)C(=Nc2cc(C(F)(F)F)[nH]n2)C1,25200,

# Further lines, results first:
AC50 [nM],"activity change, negative = inhibition",Compound
13200,,CC1(C)CC(=O)/C(=C\c2cccc(F)c2C(F)(F)F)C(=Nc2cc(C(F)(F)F)[nH]n2)C1
41,,CC1(C)CC(=O)C2=C(C1)Nc1n[nH]c(C(F)(F)F)c1C2(C)c1ccccc1 (centres undefined)
209,,CC1(C)CC(=O)C2=C(C1)Nc1n[nH]c(C(F)(F)F)c1C2c1cc(F)ccc1C(F)(F)F (centres undefined)
,inactive,CNC(=O)c1cn(-c2ccccc2)nc1-c1ccc(OC)cc1
143,,COc1ccccc1[C@@H]1C2=C(CC(C)(C)CC2=O)Nc2n[nH]c(C(F)(F)F)c21
